What all share (assay): combination Emax (second highest fraction inhibited in the dose matrix, 72 h); higher = more inhibition; extreme values may be limits of the assay
Experiment [1] concerns 639-V (Bladder Carcinoma). The method in brief:
(§1)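 Bliss excess equals the observed combination effect minus the expected value EA + EB − EA·EB, where EA and EB are the effects of each agent alone. Combination Emax is the second-highest inhibition within the matrix. Inhibition was scaled from CellTiter-Glo 2.0 luminescence, with 0 set by vehicle wells and 1 by blank wells, after 72 hours of two-drug dosing of cells plated in 1536-well plates.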

In experiment [2] the test system is RKO (Colorectal Carcinoma). The method in brief:
as §1

The test system of experiment [3] is MHH-PREB-1 (B-Cell Non-Hodgkin's Lymphoma). The method in brief:
as §1

For experiment [4], the system named is CTB-1 (B-Cell Non-Hodgkin's Lymphoma). The method in brief: as §1
In experiment [5] the test system is RPMI-6666 (Non-Cancerous). The method in brief: as §1
In experiment [6] the test system is LU-139 (Small Cell Lung Carcinoma). The method in brief:
as §1

Experiment [7] deals with SW626 (Colorectal Carcinoma). The method in brief:
as §1

Experiment [8] has as its system NCI-H747 (Colorectal Carcinoma). The method in brief: as §1
Experiment [9] has as its system HDLM-2 (Hodgkin's Lymphoma). The method in brief:
as §1

In experiment [10] the test system is CAL-54 (Kidney Carcinoma). The method in brief:
as §1

Experiment [11] relates to OC-314 (Ovarian Carcinoma). The method in brief:
as §1

The subject of experiment [12] is 8305C (Thyroid Gland Carcinoma). The method in brief:
as §1

Experiment [13] relates to HARA (Squamous Cell Lung Carcinoma). The method in brief: as §1
The test system of experiment [14] is NCI-H69 (Small Cell Lung Carcinoma). The method in brief: as §1
For experiment [15], the system named is LB771-HNC (Head and Neck Carcinoma). The method in brief:
as §1

Experiment [16] has as its system SK-OV-3 (Ovarian Carcinoma). The method in brief:
as §1

Experiment [17] deals with OVCAR-8 (Ovarian Carcinoma). The method in brief:
as §1

A further experiment concerns NB14 (Neuroblastoma). The method in brief: as §1
Experiment [18] concerns SW1271 (Small Cell Lung Carcinoma). The method in brief: as §1
For experiment [19], the system named is K5 (Thyroid Gland Carcinoma). The method in brief: as §1

The values that follow come from the supplement of paper PMC11061612.

Molecules are shown by their SMILES.

Consider `Cc1c2c(nn1C)CSCc1cc(n(C)n1)CSc1cc(c3ccccc3c1)OCCCc1c(C(=O)O)n(C)c3c-2c(Cl)ccc13` [AZD5991] + CC1(C)CCC(CN2CCN(c3ccc(C(=O)NS(=O)(=O)c4ccc(NCC5CCOCC5)c([N+](=O)[O-])c4)c(Oc4cnc5[nH]ccc5c4)c3)CC2)=C(c2ccc(Cl)cc2)C1 [Venetoclax] (first compound max 1 µM, 7x7, partner max 1 µM), for which the “combination Emax” value in experiment [1] was 0.194; in experiment [2], 0.225; in [3], 0.13; in experiment [4], 0.17; in experiment [5], 0.911; in experiment [6], 0.777. Moreover, the “combination Emax” value in [7] amounted to 0.205; in experiment [8], 0.196; in experiment [9] it was 1; in [10], 0.163; in experiment [11], 0.147; in experiment [12], 0.379. For the same compound, the “combination Emax” value in experiment [13] stood at 0.294; in experiment [14], 0.522; in experiment [15], 0.587; in [16] it was 0.219; in experiment [17], 0.189; in the experiment with NB14 (Neuroblastoma) it was 1. The figures for the “combination Emax” value in [18] and in [19] were 0.0732 and 0.183, respectively.

In the case of `CN(CCO)CC[C@H](CSc1ccccc1)Nc1ccc(S(=O)(=O)NC(=O)c2ccc(N3CCC([C@@H](O)c4ccccc4-c4ccc(Cl)cc4)CC3)cc2)cc1S(=O)(=O)C(F)(F)F` [AZD4320] + C1CN(CCC1(C(=O)N[C@@H](CCO)C2=CC=C(C=C2)Cl)N)C3=NC=NC4=C3C=CN4 [Capivasertib] (first compound max 1 µM, 7x7, partner max 3 µM), the “combination Emax” value was determined as 0.154 in experiment [1]; 0.272 in experiment [2]; 0.173 in experiment [3]; 0.295 in experiment [4]; 0.916 in [5]; 0.912 in [6]. Moreover, the “combination Emax” value in experiment [7] was found to be 0.643; in experiment [8], 0.387; in experiment [9], 0.841; in experiment [10], 0.338; in [11], 0.261; in experiment [12] it was 0.506. In addition, the “combination Emax” value in experiment [13] is 0.298; in experiment [14], 0.892; in experiment [15], 0.259; in [16], 0.369; in [17] it was 0.146; in the experiment on NB14 (Neuroblastoma), 0.947. For the same compound, the results for the “combination Emax” value in experiment [18] and in experiment [19] were 0.158 and 0.499, respectively.

Consider `COc1cccc(OCCCN)c1-c1cc(Nc2cnc(C#N)cn2)n[nH]1` [Prexasertib] + C[C@@H]1COCCN1C2=NC(=NC(=C2)C3(CC3)[S@](=N)(=O)C)C4=C5C=CNC5=NC=C4 [AZD6738] (first compound max 1 µM, 7x7, partner max 10 µM), for which the “combination Emax” value in experiment [1] came to 0.397; in experiment [2] it was 0.946; in experiment [3] it was 0.949; in experiment [4], 0.899; in [5], 0.955; in experiment [6], 0.598. Also, the “combination Emax” value in experiment [7] was 0.743; in experiment [8], 0.443; in experiment [9] it was 0.528; in [10] it was 0.84; in experiment [11], 0.934; in experiment [12], 0.718. The “combination Emax” value in experiment [13] worked out at 0.943; in experiment [14], 0.616; in experiment [15] it was 0.61; in experiment [16], 0.806; in [17], 0.991; with NB14 (Neuroblastoma), 1. Also, the entries for the “combination Emax” value in experiment [18] and in experiment [19] were 0.719 and 0.7, respectively.

As to `CC1(C)CCC(CN2CCN(c3ccc(C(=O)NS(=O)(=O)c4ccc(NCC5CCOCC5)c([N+](=O)[O-])c4)c(Oc4cnc5[nH]ccc5c4)c3)CC2)=C(c2ccc(Cl)cc2)C1` [Venetoclax] + C1CN(CCC1(C(=O)N[C@@H](CCO)C2=CC=C(C=C2)Cl)N)C3=NC=NC4=C3C=CN4 [Capivasertib] (first compound max 1 µM, 7x7, partner max 3 µM), the “combination Emax” value was 0.283 in [1]; 0.36 in [2]; 0.176 in experiment [3]; 0.429 in experiment [4]; 0.963 in experiment [5]; 0.31 in [6]. Also, the “combination Emax” value in [7] came out at 0.161; in [8], 0.441; in experiment [9], 0.514; in experiment [10] it was 0.325; in experiment [11] it was 0.316; in experiment [12], 0.387. For the same compound, the “combination Emax” value in experiment [13] was 0.645; in experiment [14], 0.802; in experiment [15], 0.248; in [16], 0.353; in experiment [17], 0.184; in the experiment on NB14 (Neuroblastoma), 0.95. Besides, the “combination Emax” value in experiment [18] is 0.262; in experiment [19] it was 0.546.

`CCc1c2c(nc3ccc(O)cc13)-c1cc3c(c(=O)n1C2)COC(=O)[C@]3(O)CC` [SN-38] + CN(C)CCCOc1ccc(-c2ccc3ncc4c(c3c2)n(C2CCOCC2)c(=O)n4C)cn1 [AZD0156] (first compound max 0.3 µM, 7x7, partner max 1 µM): the “combination Emax” value in [1] was determined as 1; in experiment [2], 0.91; in experiment [3] it was 0.701; in experiment [4] it was 0.859; in experiment [5], 0.947; in experiment [6] it was 0.627. In addition, the “combination Emax” value turned out to be 0.428 in experiment [7]; 0.408 in experiment [8]; 0.341 in experiment [9]; 0.925 in experiment [10]; 1 in experiment [11]; 0.572 in [12]. Further, the “combination Emax” value was 0.768 in experiment [13]; 0.738 in experiment [14]; 0.0261 in experiment [15]; 0.517 in experiment [16]; 0.849 in [17]; 0.918 with NB14 (Neuroblastoma). The “combination Emax” value in experiment [18] is 0.707; in experiment [19], 0.512.

Regarding `Cc1c2c(nn1C)CSCc1cc(n(C)n1)CSc1cc(c3ccccc3c1)OCCCc1c(C(=O)O)n(C)c3c-2c(Cl)ccc13` [AZD5991] + C=CCn1c(=O)c2cnc(Nc3ccc(N4CCN(C)CC4)cc3)nc2n1-c1cccc(C(C)(C)O)n1 [AZD1775] (first compound max 1 µM, partner max 1 µM), the “combination Emax” value in experiment [1] came out at 0.448; in [2] it was 0.69; in [3] it was 0.853; in experiment [4], 0.916; in experiment [5], 0.93; in experiment [6], 0.555. Moreover, the “combination Emax” value in [7] is 0.559; in experiment [8], 0.598; in [9], 1; in experiment [10], 0.702; in [11], 0.554; in experiment [12], 0.646. Also, the “combination Emax” value was found to be 0.89 in experiment [13]; 0.266 in experiment [14]; 0.745 in experiment [15]; 0.597 in [16]; 0.865 in experiment [17]; 1 in the experiment on NB14 (Neuroblastoma). Further, the “combination Emax” value in experiment [18] was 0.582; in [19], 0.482.
